Measured values from patent US11464754B2, “Betaine for the prevention of obesity” (HOSPITAL SANT JOAN DE DEU, priority 2017, dated 2022).

Key:
ICR-CD1 mice [1] = test: Maternal betaine supplementation during lactation in mouse model of maternal obesity; assay type: in vivo
Method: (§1) All animal protocols were approved by the Institutional Animal Care and Use Committee of the University of Barcelona (Spain). Mice were housed on a 12-hour light-dark cycle with free access to food and water. Male and female ICR-CD1 mice (Envigo) were mated to obtain progeny. To minimize growth variability, litters were adjusted to 8 pups per dam at birth removing heaviest and lightest mice. Glycine betaine (1% wt/vol), ampicilin (1 g/L), and neomycin (0.5 g/L) (Sigma-Aldrich) were administered in water during lactation. After weaning, mice were housed 4 per cage and fed the 2014 Teklad diet (Envigo). For diet-induced obesity, a high-fat diet (HFD, 45% kcal from fat) was provided (D12451, Research Diets). For maternal obesity studies, 6-week-old females were fed HFD for 8 weeks before mating; this same diet was maintained through pregnancy and lactation. To assess milk intake, pups were separated from dams for 2 hours and returned to their cages for 1 hour; difference in body weight before and after the feeding was expressed as grams per initial body weight per hour. For milk harvesting, samples were collected manually under anesthesia (pentobarbital, 40 mg/kg) at day 14 after birth; dams and pups were sacrificed after milk collection, and cecal content obtained for microbiome studies. Body composition was determined by using a 7.0T Bruker Biospect MRI system (Bruker Medical Gmbh, Germany). Indirect calorimetry was measured in metabolic cages (PhenoMaster/LabMaster, TSE Systems GmbH, Germany); O2, CO2, food intake, and locomotor activity were monitored for 48 hours, and data analyzed using 2-way ANOVA for repeated measures. Intraperitoneal glucose (1.5 g/kg) and insulin (0.6 U/kg) tolerance test were performed after a 16 or 4 hour fast, respectively. Mice were anesthetized (intraperitoneal pentobarbital, 50 mg/kg) and sacrificed between 9-11 am.
To test whether betaine interacts with maternal obesity, betaine supplementation was performed during lactation in a mouse model of maternal obesity. Dams were fed a high-fat diet (HFD) for 8 weeks before mating, and randomly assigned to control (MO-C) or betaine treatment (MO-B) groups at delivery. Supplementation was performed as described above.
(§2) It was also investigated whether the above changes during early life translated into long-term metabolic improvements. Offspring was maintained on a chow diet after weaning and monitored up to 24 weeks of age. […] Consistent with lower adiposity, adipocyte size and inflammatory markers were decreased in male offspring from betaine-treated dams. […] Furthermore, basal insulin levels decreased by 40% in treatment compared to control group (p<0.05, FIG. 5D).

ICR-CD1 mice [2] = test: Maternal betaine supplementation during lactation, lean dams: offspring growth, adiposity and metabolism on chow diet; assay type: in vivo
Method: as §1
(§3) Mouse milk samples were diluted 1:3 before macronutrient analysis by mid-infrared spectroscopy in a Miris Analyzer (Miris AB). Relative betaine concentrations were determined by liquid chromatography (Acquity UPLC BEH HILIC column, Waters) coupled to mass spectrometry (QqQ/MS 6490, Agilent). Plasma insulin was determined by ELISA (Millipore). Plasma MCP-1, IL-6 and PAI-1 were measured using Milliplex Map (EMD Millipore, Merck). Hepatic and fecal triglycerides were quantified in chloroform-methanol extracts from liver or feces (50 mg) using Triglyceride Assay Kit (Sigma-Aldrich).
(§4) Tissues were fixed by immersion in formalin, paraffin-embedded, and sections stained with hematoxylin/eosin. For WAT, adipocyte area was measured in 30 random microscopic fields per animal (10-20 cells/field). For ileum, cross-sectional cuts were stained with Periodic acid-Schiff (PAS) method. Ten villi per mouse from 5-6 sections were analyzed. Goblet cell number per villus was determined and expressed as number of cells per 100 μm. Analyses were performed using ImageJ by a researcher blinded to sample ID.
To study whether milk betaine modulates growth and obesity risk, we performed maternal supplementation experiments in mice exclusively during lactation. Dams were randomly assigned to control (C) or treatment (B, 1% betaine in water) groups the first day after delivery. Milk samples were collected at day 14 after birth from a subset of dams to determine betaine levels.
as §2

[3] = Betaine levels and composition of dam milk, and offspring plasma betaine, after maternal betaine supplementation during lactation; assay type: in vivo, mice
Method: All animal protocols were approved by the Institutional Animal Care and Use Committee of the University of Barcelona (Spain). Mice were housed on a 12-hour light-dark cycle with free access to food and water. Male and female ICR-CD1 mice (Envigo) were mated to obtain progeny. To minimize growth variability, litters were adjusted to 8 pups per dam at birth removing heaviest and lightest mice. Glycine betaine (1% wt/vol), ampicilin (1 g/L), and neomycin (0.5 g/L) (Sigma-Aldrich) were administered in water during lactation. After weaning, mice were housed 4 per cage and fed the 2014 Teklad diet (Envigo). […] To assess milk intake, pups were separated from dams for 2 hours and returned to their cages for 1 hour; difference in body weight before and after the feeding was expressed as grams per initial body weight per hour. […] Body composition was determined by using a 7.0T Bruker Biospect MRI system (Bruker Medical Gmbh, Germany). Indirect calorimetry was measured in metabolic cages (PhenoMaster/LabMaster, TSE Systems GmbH, Germany); O2, CO2, food intake, and locomotor activity were monitored for 48 hours, and data analyzed using 2-way ANOVA for repeated measures. […]
Mouse milk samples were diluted 1:3 before macronutrient analysis by mid-infrared spectroscopy in a Miris Analyzer (Miris AB). […] Plasma insulin was determined by ELISA (Millipore). […]

ICR-CD1 mice [4] = test: Intestinal epithelium and inflammatory markers in 6-week-old offspring of betaine-treated dams; assay type: in vivo
Method: as §1, §3
Total RNA from tissues was isolated with TRI Reagent (Sigma-Aldrich) and cDNA obtained with High-capacity cDNA kit (Applied Biosystems). qPCR was performed with SybrGreen (Takara Bio), using Hprt as housekeeping gene. Primer sequences are the following:
as §4
These changes were accompanied by decreased mRNA levels of inflammatory markers (Ccl2, TIr4, Cd11c) in epididymal white adipose tissue (eWAT, FIG. 4B).

ICR-CD1 mice [5] = test: Diet-induced obesity (HFD for 16 weeks) in offspring of betaine-treated dams; assay type: in vivo
Method: as §1, §3
It was then tested whether this early-life intervention protected against diet-induced obesity. To this end, 6-week-old offspring of lean control or betaine-treated dams were fed a HFD for 16 weeks (HF-C and HF-B groups, respectively). […] Supplementation ameliorated glucose tolerance (FIG. 6B), and decreased fasting glucose (Time 0, FIG. 6B) and insulin levels (FIG. 6C). Hepatic triglyceride accumulation was reduced by 30% in the HF-B group (p<0.05, FIG. 6D).

[6] = adult male offspring, chow diet

Question: What does the source list for C[N+](C)(C)CC(=O)O [betaine, glycine betaine]?
Answer: fat mass (ICR-CD1 mice [1]; 6 weeks of age, MO-B vs MO-C): trend towards lower; milk intake (ICR-CD1 mice [1]; MO-B vs MO-C): no differences; offspring growth during lactation (ICR-CD1 mice [1]; MO-B vs MO-C, obese dams): moderated; basal insulin levels (ICR-CD1 mice [1]; adult male offspring): decreased; glucose tolerance (ICR-CD1 mice [1]; adult male offspring): improved; body weight and adiposity (ICR-CD1 mice [1]; [6]): lower; glucose tolerance (ICR-CD1 mice [2]; adult female offspring): no effect; adipocyte size and inflammatory markers (ICR-CD1 mice [2]; [6]): decreased; decrease of basal insulin levels (ICR-CD1 mice [2]; adult male offspring, treatment vs control group): 40%; glucose tolerance (ICR-CD1 mice [2]; adult male offspring, week 20): notable improvement; blood glucose at each time point in insulin tolerance testing (ICR-CD1 mice [2]; adult males): significantly lower; response to insulin administration (ICR-CD1 mice [2]; adult males, insulin tolerance testing): no difference; hepatic triglyceride accumulation (ICR-CD1 mice [2]; adult offspring, chow diet): no significant effect; body weight gain and eWAT weight (ICR-CD1 mice [2]; female offspring, chow diet): no effect; offspring growth patterns during lactation (ICR-CD1 mice [2]; lean dams, 1% betaine in water): did not modulate; milk intake (ICR-CD1 mice [2]; lean dams, pups at 1 week of age): did not modulate; fat mass (ICR-CD1 mice [2]; male offspring at 6 weeks of age, vs control): decreased; eWAT weight (ICR-CD1 mice [2]; male offspring, chow diet, 24 weeks): decreased; body weight gain throughout adulthood (ICR-CD1 mice [2]; male offspring, chow diet, up to 24 weeks of age): lower; glucose tolerance, food intake, energy expenditure, respiratory exchange ratio, activity levels (ICR-CD1 mice [2]; young mice): did not differ; increase of milk betaine content ([3]; dam milk at day 14 after birth, 1% betaine in water during lactation, vs control): 5 fold; increase of offspring plasma betaine ([3]; fourteen-day-old offspring of betaine-treated dams): 1.8 fold; mRNA levels of inflammatory markers (Ccl2, Tlr4, Cd11c) in eWAT (ICR-CD1 mice [4]; six-week-old male offspring): decreased; circulating levels of IL-6 (ICR-CD1 mice [4]; six-week-old male offspring, p<0.05): decreased; circulating levels of MCP-1 (ICR-CD1 mice [4]; six-week-old male offspring, p=0.08): numerical decrease; circulating levels of PAI-1 (ICR-CD1 mice [4]; six-week-old male offspring, p=0.25): numerical decrease; expression of Ccl2 in brown adipose, liver, and skeletal muscle (ICR-CD1 mice [4]; six-week-old offspring): decreased; ileal Muc2 mRNA expression (ICR-CD1 mice [4]; six-week-old offspring): increased; ileal villi length (ICR-CD1 mice [4]; six-week-old offspring): no differences; increase of ileal goblet cell number (ICR-CD1 mice [4]; six-week-old offspring): 1.3 fold; reduction of hepatic triglyceride accumulation (ICR-CD1 mice [5]; HF-B group vs HF-C, male mice): 30%; fecal lipid content (ICR-CD1 mice [5]; HFD): no differences; cumulative food intake (ICR-CD1 mice [5]; HFD, did not reach statistical significance): modest numerical decrease; body weight gain (ICR-CD1 mice [5]; male and female offspring on HFD, HF-B vs HF-C): lower; insulin levels (ICR-CD1 mice [5]; male mice on HFD): decreased; glucose tolerance (ICR-CD1 mice [5]; male mice on HFD, 18 weeks of life): ameliorated; fasting glucose (ICR-CD1 mice [5]; male mice on HFD, Time 0): decreased
